Results reported in the supplement of paper PMC10331698.
± gives the standard deviation of the averaged measurements.

Columns and labels:
Test in all cases: level (log10 ratio to DMSO vehicle control); higher = higher biomarker level / cell amount than vehicle control
[1] = compound: C=C(C)C(=O)OCCC(F)(F)C(F)(F)C(F)(F)C(F)(F)C(F)(F)C(F)(F)F [6:2 Fluorotelomer methacrylate]; conditions: in DMSO
Method: (§1)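 BioMAP Diversity Plus panel of 12 human primary cell co-culture systems (3C, 4H, LPS, SAg, BT, BF4T, BE3C, CASM3C, HDF3CGF, KF3CT, MyoF, Mphg). Compounds were added 1 h before stimulation and left for 24 h (MyoF 48 h; BT 72 h for soluble read-outs or 6 d for IgG). Biomarkers were read by ELISA, cytotoxicity by SRB, PBMC viability and proliferation by Alamar Blue. Each well value was divided by the mean of 8 DMSO control wells on the same plate and log10 transformed; duplicate blinded samples were tested at 4 concentrations.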

[2] = compound: C=CC(=O)OCC(F)(F)C(F)(F)C(F)(F)COC(=O)C=C [1H,1H,5H,5H-Perfluoro-1,5-pentanediol diacrylate]; conditions: 6700 nM; in DMSO
Method: as §1

[3] = compound: COC(=O)C(F)(F)C(F)(F)OC(F)(C(F)(F)F)C(F)(F)OC(F)=C(F)F [Methyl perfluoro(3-(1-ethenyloxypropan-2-yloxy)propanoate)]; conditions: in DMSO
Method: as §1

[4] = compound: FC(F)(F)C(F)(F)C(F)(F)C(F)(F)C(F)(F)C(F)(F)C(F)(F)I [1-Iodopentadecafluoroheptane]; conditions: in DMSO
Method: as §1

[5] = compound: FC(F)(F)C(F)(F)C(F)(F)C(F)(F)C(F)(F)C(F)(F)CC1CO1 [3-(Perfluorohexyl)-1,2-epoxypropane]; conditions: in DMSO
Method: as §1

[6] = compound: FC(F)(F)C(F)(F)C(F)(F)CC1CO1 [1H,1H-Heptafluorobutyl epoxide]; conditions: in DMSO
Method: as §1

Heptafluorobutyl iodide = compound: FC(F)(F)C(F)(F)C(F)(F)CI [Heptafluorobutyl iodide]; conditions: in DMSO
Method: as §1

[7] = compound: FC(F)(F)C(F)(F)CNCC(F)(F)C(F)(F)F [Bis(1H,1H-perfluoropropyl)amine]; conditions: in DMSO
Method: as §1

Octafluoroadipamide = compound: NC(=O)C(F)(F)C(F)(F)C(F)(F)C(F)(F)C(N)=O [Octafluoroadipamide]; conditions: in DMSO
Method: as §1

Nonafluoropentanamide = compound: NC(=O)C(F)(F)C(F)(F)C(F)(F)C(F)(F)F [Nonafluoropentanamide]; conditions: in DMSO
Method: as §1

[8] = compound: NC(=O)C(F)(F)C(F)(F)C(F)(F)C(F)F; conditions: in DMSO
Method: as §1

[9] = compound: NS(=O)(=O)C(F)(F)C(F)(F)C(F)(F)C(F)(F)C(F)(F)C(F)(F)F [Perfluorohexanesulfonamide]; conditions: in DMSO
Method: as §1

[10] = compound: O=C(O)C(F)(F)C(F)(F)C(F)(F)C(F)(F)C(F)(F)C(F)(F)C(F)(F)C(F)(F)C(F)(F)C(F)F [11-H-Perfluoroundecanoic acid]; conditions: in DMSO
Method: as §1

[11] = compound: O=C(O)C=CC(F)(C(F)(F)F)C(F)(F)F [3-(Perfluoroisopropyl)-2-propenoic acid]; conditions: in DMSO
Method: as §1

[12] = compound: O=S(=O)(Cl)C(F)(F)C(F)(F)C(F)(F)C(F)(F)C(F)(F)C(F)(F)C(F)(F)C(F)(F)F [Perfluoro-1-octanesulfonyl chloride]; conditions: in DMSO
Method: as §1

[13] = compound: O=S(=O)(F)C(F)(F)C(F)(F)C(F)(F)C(F)(F)C(F)(F)C(F)(F)C(F)(F)C(F)(F)F [Perfluorooctanesulfonyl fluoride]; conditions: in DMSO
Method: as §1

[14] = compound: O=S(=O)(O)C(F)(F)C(F)(F)C(F)(F)C(F)(F)C(F)(F)C(F)(F)C(F)(F)C(F)(F)C(F)(F)C(F)(F)F [Sodium perfluorodecanesulfonate]; conditions: in DMSO
Method: as §1

[15] = compound: O=S(=O)(O)CCC(F)(F)C(F)(F)C(F)(F)C(F)(F)C(F)(F)C(F)(F)F [6:2 Fluorotelomer sulfonic acid]; conditions: in DMSO
Method: as §1

Hexafluoroamylene glycol = compound: OCC(F)(F)C(F)(F)C(F)(F)CO [Hexafluoroamylene glycol]; conditions: in DMSO
Method: as §1

SAg:CXCL9/MIG
level (log10) ([1]; 6700 nM): 0.007 ± 0.023
level (log10) ([1]; 20000 nM): 0.0085 ± 0.011
level (log10) ([1]; 60000 nM): 0.012 ± 0.025
level (log10) [2]: 0.0025 ± 0.0078
level (log10) ([3]; 6700 nM): -0.0145 ± 0.021
level (log10) ([3]; 20000 nM): 0.0055 ± 0.0035
level (log10) ([4]; 6700 nM): 0.006 ± 0.0071
level (log10) ([4]; 20000 nM): 0.02 ± 0.0042
level (log10) ([5]; 6700 nM): 0.008 ± 0.0085
level (log10) ([5]; 20000 nM): 0.006 ± 0.0057
level (log10) ([5]; 60000 nM): 0.002 ± 0.0042
level (log10) ([6]; 6700 nM): -0.0155 ± 0.0078
level (log10) ([6]; 20000 nM): -0.0165 ± 0.015
level (log10) ([6]; 60000 nM): -0.0065 ± 0.018
level (log10) (Heptafluorobutyl iodide; 6700 nM): -0.007 ± 0.0028
level (log10) (Heptafluorobutyl iodide; 20000 nM): -0.0025 ± 0.0021
level (log10) (Heptafluorobutyl iodide; 60000 nM): -0.0085 ± 0.0092
level (log10) ([7]; 6700 nM): -0.0045 ± 0.0021
level (log10) ([7]; 20000 nM): -0.0045 ± 0.0035
level (log10) ([7]; 60000 nM): 0.0075 ± 0.012
level (log10) (Octafluoroadipamide; 6700 nM): 0
level (log10) (Octafluoroadipamide; 20000 nM): -0.0045 ± 0.0064
level (log10) (Octafluoroadipamide; 60000 nM): -0.0005 ± 0.013
level (log10) (Nonafluoropentanamide; 6700 nM): 0.003 ± 0.014
level (log10) (Nonafluoropentanamide; 20000 nM): -0.0035 ± 0.013
level (log10) (Nonafluoropentanamide; 60000 nM): 0.0185 ± 0.015
level (log10) ([8]; 6700 nM): -0.0015 ± 0.0021
level (log10) ([8]; 20000 nM): -0.0055 ± 0.005
level (log10) ([8]; 60000 nM): 0.0105 ± 0.0021
level (log10) ([9]; 6700 nM): -0.0135 ± 0.018
level (log10) ([9]; 20000 nM): -0.004 ± 0.0071
level (log10) ([9]; 60000 nM): 0.0105 ± 0.0064
level (log10) ([10]; 6700 nM): -0.005 ± 0.011
level (log10) ([10]; 20000 nM): -0.011
level (log10) ([11]; 6700 nM): -0.0105 ± 0.025
level (log10) ([11]; 20000 nM): 0.013
level (log10) ([11]; 60000 nM): -0.006 ± 0.0085
level (log10) ([12]; 6700 nM): -0.007 ± 0.0071
level (log10) ([12]; 20000 nM): -0.018 ± 0.0028
level (log10) ([12]; 60000 nM): 0.0075 ± 0.021
level (log10) ([13]; 6700 nM): -0.005 ± 0.0014
level (log10) ([13]; 20000 nM): -0.0015 ± 0.0078
level (log10) ([13]; 60000 nM): 0.002 ± 0.018
level (log10) ([14]; 1500 nM): 0.0075 ± 0.013
level (log10) ([14]; 4400 nM): -0.0085 ± 0.011
level (log10) ([14]; 13000 nM): 0.015 ± 0.013
level (log10) ([14]; 40000 nM): -0.0255 ± 0.013
level (log10) ([15]; 6700 nM): -0.002 ± 0.018
level (log10) ([15]; 20000 nM): -0.0035 ± 0.015
level (log10) ([15]; 60000 nM): -0.0045 ± 0.012
level (log10) (Hexafluoroamylene glycol; 6700 nM): -0.0015 ± 0.011
level (log10) (Hexafluoroamylene glycol; 20000 nM): -0.016 ± 0.016
level (log10) (Hexafluoroamylene glycol; 60000 nM): -0.003 ± 0.0071

lMphg:CD40
level (log10) ([1]; 6700 nM): -0.0125 ± 0.016
level (log10) ([1]; 20000 nM): 0.0065 ± 0.023
level (log10) ([1]; 60000 nM): 0.0235 ± 0.005
level (log10) [2]: -0.0585 ± 0.015
level (log10) ([3]; 6700 nM): -0.0295 ± 0.0064
level (log10) ([3]; 20000 nM): -0.0365 ± 0.028
level (log10) ([4]; 6700 nM): -0.0175 ± 0.052
level (log10) ([4]; 20000 nM): -0.0365 ± 0.046
level (log10) ([5]; 6700 nM): -0.029 ± 0.0071
level (log10) ([5]; 20000 nM): -0.0195 ± 0.005
level (log10) ([5]; 60000 nM): -0.005 ± 0.0028
level (log10) ([6]; 6700 nM): -0.005 ± 0.025
level (log10) ([6]; 20000 nM): -0.001 ± 0.016
level (log10) ([6]; 60000 nM): 0.0045 ± 0.0021
level (log10) (Heptafluorobutyl iodide; 6700 nM): -0.025 ± 0.031
level (log10) (Heptafluorobutyl iodide; 20000 nM): -0.0065 ± 0.013
level (log10) (Heptafluorobutyl iodide; 60000 nM): -0.024 ± 0.0057
level (log10) ([7]; 6700 nM): 0.006 ± 0.0057
level (log10) ([7]; 20000 nM): 0.006 ± 0.0028
level (log10) ([7]; 60000 nM): -0.0065 ± 0.0092
level (log10) (Octafluoroadipamide; 6700 nM): -0.0055 ± 0.0021
level (log10) (Octafluoroadipamide; 20000 nM): -0.0125 ± 0.0035
level (log10) (Octafluoroadipamide; 60000 nM): 0.0155 ± 0.00071
level (log10) (Nonafluoropentanamide; 6700 nM): 0.0255 ± 0.03
level (log10) (Nonafluoropentanamide; 20000 nM): 0.0255 ± 0.029
level (log10) (Nonafluoropentanamide; 60000 nM): -0.0095 ± 0.012
level (log10) ([8]; 6700 nM): -0.026 ± 0.027
level (log10) ([8]; 20000 nM): -0.011 ± 0.0071
level (log10) ([8]; 60000 nM): -0.017 ± 0.0042
level (log10) ([9]; 6700 nM): -0.02 ± 0.021
level (log10) ([9]; 20000 nM): -0.043 ± 0.031
level (log10) ([9]; 60000 nM): -0.146 ± 0.021
level (log10) ([10]; 6700 nM): -0.0365 ± 0.005
level (log10) ([10]; 20000 nM): -0.04 ± 0.021
level (log10) ([11]; 6700 nM): -0.0395 ± 0.053
level (log10) ([11]; 20000 nM): -0.01 ± 0.025
level (log10) ([11]; 60000 nM): -0.0045 ± 0.019
level (log10) ([12]; 6700 nM): -0.0165 ± 0.019
level (log10) ([12]; 20000 nM): -0.01
level (log10) ([12]; 60000 nM): -0.0065 ± 0.0035
level (log10) ([13]; 6700 nM): -0.023 ± 0.051
level (log10) ([13]; 20000 nM): -0.0205 ± 0.049
level (log10) ([13]; 60000 nM): -0.0575 ± 0.042
level (log10) ([14]; 1500 nM): -0.0305 ± 0.0078
level (log10) ([14]; 4400 nM): -0.0285 ± 0.016
level (log10) ([14]; 13000 nM): -0.0455 ± 0.012
level (log10) ([14]; 40000 nM): -0.104 ± 0.018
level (log10) ([15]; 6700 nM): -0.017 ± 0.011
level (log10) ([15]; 20000 nM): -0.022 ± 0.028
level (log10) ([15]; 60000 nM): -0.05 ± 0.033
level (log10) (Hexafluoroamylene glycol; 6700 nM): -0.0175 ± 0.0021
level (log10) (Hexafluoroamylene glycol; 20000 nM): -0.002 ± 0.0028
level (log10) (Hexafluoroamylene glycol; 60000 nM): -0.0285 ± 0.039
